Data taken from US5616557A, “Process for selectively inhibiting activity of endotoxin” (Wako Pure Chemical Industries, Ltd., priority 1993, dated 1997).

Tested on: E. coli 0128:B12 LPS
Assay: Limulus test of ET spiked plasma, Example 4
Assay type: biochemical
Details: 0.009 w/v % of Px B alone; ET 2 ng/ml, 80° C. 5 minutes (FIG. 4)
Method: To 0.1 ml of the LAL solution was added 0.1 ml of the aforesaid diluted plasma, and stirred, after which a time required for reducing the transmittance of the resulting mixture by 5% (hereinafter abbreviated as "Tg") was measured while maintaining the temperature at 37° C. The ET concentration in the diluted plasma was determined on the basis of the thus obtained Tg value by use of a calibration curve showing the relationship between ET concentration and Tg which had been previously obtained by carrying out the same measurement as described above except for using ET solutions having various known concentrations in place of the samples.
To 1.3 ml of normal human heparinized plasma was added 13 μl of ET solution having a predetermined concentration, and 100 μl of the resulting ET spiked plasma was diluted 10 times with 900 μl of distilled water for injection, each of aqueous surfactant solutions having predetermined concentrations, each of aqueous Px B solutions having predetermined concentrations, or each of aqueous Px B solutions having predetermined concentrations and containing 0.1 w/v % or 0.2 w/v % of the surfactant (polyoxyethylene glycol p-t-octylphenyl ether), respectively. […] The ET concentration in the diluted plasma thus obtained was measured in the same manner as in Example 1.

## polymyxin B [Px B]
  ET activity in plasma: completely inhibited
